Experimental data as given in the NIST ThermoML archive (doi:10.1021/acs.jced.8b00554).
± gives the expanded uncertainty stated by the source.

Experiment: xn = mol fraction of the nth substance listed
Conditions: Liquid, Vibrating tube method

CCCCCCCC [octane] + CCCO
mass density [kg/m3]
Conditions | 313.15 K | 323.15 K
100 kPa, x2 = 0.1631 | 693.18 ± 4.4 | 684.56 ± 4.4
100 kPa, x2 = 0.2111 | 695.76 ± 4.5 | 687.03 ± 4.4
100 kPa, x2 = 0.3158 | 701.99 ± 4.5 | 693.22 ± 4.4
100 kPa, x2 = 0.4411 | 711 ± 4.5 | 702.44 ± 4.5
100 kPa, x2 = 0.7301 | 740.14 ± 4.7 | 731.25 ± 4.7
100 kPa, x2 = 0.8823 | 763.46 ± 4.9 | 754.72 ± 4.8
1000 kPa, x2 = 0.1631 | 694.31 ± 4.5 | –
1000 kPa, x2 = 0.4411 | 712.19 ± 4.6 | –
1000 kPa, x2 = 0.8823 | – | 755.36 ± 4.8
1010 kPa, x2 = 0.2111 | 696.95 ± 4.5 | –
1010 kPa, x2 = 0.3158 | 703.21 ± 4.5 | 694.15 ± 4.5
1010 kPa, x2 = 0.4411 | – | 703 ± 4.5
1010 kPa, x2 = 0.7301 | 741.33 ± 4.8 | 732.1 ± 4.7
1010 kPa, x2 = 0.8823 | 764.37 ± 4.9 | –
1020 kPa, x2 = 0.1631 | – | 685.52 ± 4.4
1020 kPa, x2 = 0.2111 | – | 688.02 ± 4.4
2000 kPa, x2 = 0.4411 | – | 703.99 ± 4.5
2000 kPa, x2 = 0.7301 | 742.25 ± 4.8 | –
2010 kPa, x2 = 0.1631 | 695.26 ± 4.5 | 686.54 ± 4.4
2010 kPa, x2 = 0.2111 | 697.87 ± 4.5 | 689.01 ± 4.4
2010 kPa, x2 = 0.3158 | 704.14 ± 4.5 | 695.16 ± 4.5
2010 kPa, x2 = 0.4411 | 713.12 ± 4.6 | –
2010 kPa, x2 = 0.7301 | – | 733.06 ± 4.7
2010 kPa, x2 = 0.8823 | 765.24 ± 4.9 | –
2020 kPa, x2 = 0.8823 | – | 756.3 ± 4.8
3000 kPa, x2 = 0.2111 | 698.81 ± 4.5 | –
3000 kPa, x2 = 0.4411 | 714.05 ± 4.6 | 704.97 ± 4.5
3000 kPa, x2 = 0.7301 | 743.18 ± 4.8 | –
3010 kPa, x2 = 0.3158 | 705.04 ± 4.5 | 696.14 ± 4.5
3010 kPa, x2 = 0.7301 | – | 734.04 ± 4.7
3010 kPa, x2 = 0.8823 | – | 757.26 ± 4.8
3020 kPa, x2 = 0.1631 | 696.19 ± 4.5 | 687.52 ± 4.4
3020 kPa, x2 = 0.2111 | – | 690 ± 4.4
3020 kPa, x2 = 0.8823 | 766.13 ± 4.9 | –
4000 kPa, x2 = 0.2111 | 699.72 ± 4.5 | –
4000 kPa, x2 = 0.4411 | 714.95 ± 4.6 | –
4010 kPa, x2 = 0.3158 | 705.98 ± 4.5 | –
4010 kPa, x2 = 0.7301 | 744.05 ± 4.8 | 734.99 ± 4.7
4010 kPa, x2 = 0.8823 | – | 758.2 ± 4.9
4020 kPa, x2 = 0.1631 | 697.09 ± 4.5 | 688.52 ± 4.4
4020 kPa, x2 = 0.2111 | – | 691 ± 4.4
4020 kPa, x2 = 0.3158 | – | 697.11 ± 4.5
4020 kPa, x2 = 0.4411 | – | 705.97 ± 4.5
4020 kPa, x2 = 0.8823 | 767 ± 4.9 | –
5000 kPa, x2 = 0.1631 | 698.01 ± 4.5 | –
5000 kPa, x2 = 0.3158 | 706.86 ± 4.5 | –
5000 kPa, x2 = 0.8823 | 767.9 ± 4.9 | –
5010 kPa, x2 = 0.1631 | – | 689.5 ± 4.4
5010 kPa, x2 = 0.2111 | 700.64 ± 4.5 | –
5010 kPa, x2 = 0.7301 | 744.95 ± 4.8 | 735.97 ± 4.7
5020 kPa, x2 = 0.2111 | – | 691.96 ± 4.4
5020 kPa, x2 = 0.3158 | – | 698.1 ± 4.5
5020 kPa, x2 = 0.4411 | 715.86 ± 4.6 | 706.95 ± 4.5
5020 kPa, x2 = 0.8823 | – | 759.13 ± 4.9
6000 kPa, x2 = 0.7301 | – | 736.92 ± 4.7
6010 kPa, x2 = 0.1631 | – | 690.43 ± 4.4
6010 kPa, x2 = 0.2111 | 701.53 ± 4.5 | 692.93 ± 4.4
6010 kPa, x2 = 0.4411 | 716.76 ± 4.6 | 707.91 ± 4.5
6010 kPa, x2 = 0.7301 | 745.83 ± 4.8 | –
6010 kPa, x2 = 0.8823 | 768.74 ± 4.9 | 760.04 ± 4.9
6020 kPa, x2 = 0.1631 | 698.89 ± 4.5 | –
6020 kPa, x2 = 0.3158 | 707.76 ± 4.5 | 699.06 ± 4.5
7000 kPa, x2 = 0.1631 | – | 691.4 ± 4.4
7000 kPa, x2 = 0.3158 | 708.66 ± 4.5 | –
7010 kPa, x2 = 0.2111 | – | 693.87 ± 4.5
7010 kPa, x2 = 0.4411 | – | 708.85 ± 4.5
7010 kPa, x2 = 0.7301 | 746.74 ± 4.8 | 737.85 ± 4.7
7020 kPa, x2 = 0.1631 | 699.79 ± 4.5 | –
7020 kPa, x2 = 0.2111 | 702.4 ± 4.5 | –
7020 kPa, x2 = 0.3158 | – | 700.03 ± 4.5
7020 kPa, x2 = 0.4411 | 717.65 ± 4.6 | –
7020 kPa, x2 = 0.8823 | 769.63 ± 4.9 | 760.95 ± 4.9
8000 kPa, x2 = 0.1631 | 700.66 ± 4.5 | 692.37 ± 4.4
8010 kPa, x2 = 0.3158 | 709.55 ± 4.5 | 700.95 ± 4.5
8010 kPa, x2 = 0.4411 | 718.55 ± 4.6 | 709.8 ± 4.5
8010 kPa, x2 = 0.7301 | 747.6 ± 4.8 | 738.79 ± 4.7
8010 kPa, x2 = 0.8823 | 770.46 ± 4.9 | 761.85 ± 4.9
8020 kPa, x2 = 0.2111 | 703.3 ± 4.5 | 694.84 ± 4.5
9000 kPa, x2 = 0.3158 | 710.41 ± 4.5 | –
9000 kPa, x2 = 0.4411 | 719.39 ± 4.6 | –
9000 kPa, x2 = 0.7301 | 748.46 ± 4.8 | 739.71 ± 4.7
9010 kPa, x2 = 0.1631 | 701.54 ± 4.5 | –
9010 kPa, x2 = 0.4411 | – | 710.74 ± 4.5
9010 kPa, x2 = 0.8823 | – | 762.75 ± 4.9
9020 kPa, x2 = 0.1631 | – | 693.29 ± 4.4
9020 kPa, x2 = 0.2111 | 704.17 ± 4.5 | 695.78 ± 4.5
9020 kPa, x2 = 0.3158 | – | 701.92 ± 4.5
9020 kPa, x2 = 0.8823 | 771.29 ± 4.9 | –
10000 kPa, x2 = 0.1631 | – | 694.22 ± 4.5
10000 kPa, x2 = 0.2111 | 705.02 ± 4.5 | –
10000 kPa, x2 = 0.7301 | – | 740.61 ± 4.7
10010 kPa, x2 = 0.1631 | 702.41 ± 4.5 | –
10010 kPa, x2 = 0.2111 | – | 696.69 ± 4.5
10010 kPa, x2 = 0.4411 | 720.29 ± 4.6 | –
10010 kPa, x2 = 0.7301 | 749.32 ± 4.8 | –
10020 kPa, x2 = 0.3158 | 711.31 ± 4.6 | –
10020 kPa, x2 = 0.8823 | 772.16 ± 5 | –
11000 kPa, x2 = 0.1631 | 703.29 ± 4.5 | –
11000 kPa, x2 = 0.8823 | 772.97 ± 5 | –
11010 kPa, x2 = 0.3158 | 712.17 ± 4.6 | –
11010 kPa, x2 = 0.7301 | 750.16 ± 4.8 | –
11020 kPa, x2 = 0.2111 | 705.91 ± 4.5 | –
11020 kPa, x2 = 0.4411 | 721.14 ± 4.6 | –
12010 kPa, x2 = 0.1631 | 704.11 ± 4.5 | –
12010 kPa, x2 = 0.2111 | 706.77 ± 4.5 | –
12010 kPa, x2 = 0.3158 | 712.99 ± 4.6 | –
12010 kPa, x2 = 0.7301 | 751 ± 4.8 | –
12020 kPa, x2 = 0.4411 | 722 ± 4.6 | –
12020 kPa, x2 = 0.8823 | 773.81 ± 5 | –
13000 kPa, x2 = 0.4411 | 722.85 ± 4.6 | –
13000 kPa, x2 = 0.8823 | 774.61 ± 5 | –
13010 kPa, x2 = 0.1631 | 704.97 ± 4.5 | –
13010 kPa, x2 = 0.3158 | 713.85 ± 4.6 | –
13010 kPa, x2 = 0.7301 | 751.83 ± 4.8 | –
13020 kPa, x2 = 0.2111 | 707.6 ± 4.5 | –
14010 kPa, x2 = 0.3158 | 714.67 ± 4.6 | –
14020 kPa, x2 = 0.1631 | 705.8 ± 4.5 | –
14020 kPa, x2 = 0.2111 | 708.41 ± 4.5 | –
14020 kPa, x2 = 0.4411 | 723.68 ± 4.6 | –
14020 kPa, x2 = 0.7301 | 752.64 ± 4.8 | –
14020 kPa, x2 = 0.8823 | 775.41 ± 5 | –
15000 kPa, x2 = 0.4411 | 724.48 ± 4.6 | –
15010 kPa, x2 = 0.2111 | 709.26 ± 4.5 | –
15010 kPa, x2 = 0.3158 | 715.49 ± 4.6 | –
15010 kPa, x2 = 0.7301 | 753.46 ± 4.8 | –
15010 kPa, x2 = 0.8823 | 776.2 ± 5 | –
15020 kPa, x2 = 0.1631 | 706.63 ± 4.5 | –
16000 kPa, x2 = 0.1631 | 707.41 ± 4.5 | –
16010 kPa, x2 = 0.4411 | 725.31 ± 4.7 | –
16010 kPa, x2 = 0.7301 | 754.27 ± 4.8 | –
16010 kPa, x2 = 0.8823 | 776.98 ± 5 | –
16020 kPa, x2 = 0.2111 | 710.08 ± 4.5 | –
16020 kPa, x2 = 0.3158 | 716.32 ± 4.6 | –
17000 kPa, x2 = 0.8823 | 777.78 ± 5 | –
17020 kPa, x2 = 0.1631 | 708.23 ± 4.5 | –
17020 kPa, x2 = 0.2111 | 710.85 ± 4.6 | –
17020 kPa, x2 = 0.3158 | 717.13 ± 4.6 | –
17020 kPa, x2 = 0.4411 | 726.11 ± 4.7 | –
17020 kPa, x2 = 0.7301 | 755.05 ± 4.8 | –
18000 kPa, x2 = 0.1631 | 709.02 ± 4.5 | –
18000 kPa, x2 = 0.4411 | 726.91 ± 4.7 | –
18010 kPa, x2 = 0.2111 | 711.64 ± 4.6 | –
18010 kPa, x2 = 0.3158 | 717.91 ± 4.6 | –
18010 kPa, x2 = 0.8823 | 778.53 ± 5 | –
18020 kPa, x2 = 0.7301 | 755.85 ± 4.8 | –
19000 kPa, x2 = 0.3158 | 718.69 ± 4.6 | –
19000 kPa, x2 = 0.7301 | 756.62 ± 4.8 | –
19010 kPa, x2 = 0.2111 | 712.43 ± 4.6 | –
19010 kPa, x2 = 0.4411 | 727.68 ± 4.7 | –
19010 kPa, x2 = 0.8823 | 779.29 ± 5 | –
19020 kPa, x2 = 0.1631 | 709.81 ± 4.5 | –
20000 kPa, x2 = 0.2111 | 713.22 ± 4.6 | –
20000 kPa, x2 = 0.4411 | 728.45 ± 4.7 | –
20010 kPa, x2 = 0.1631 | 710.59 ± 4.6 | –
20010 kPa, x2 = 0.3158 | 719.47 ± 4.6 | –
20010 kPa, x2 = 0.7301 | 757.39 ± 4.9 | –
20020 kPa, x2 = 0.8823 | 780.06 ± 5 | –
